Three molecules from patent US10932465B2, “Antimicrobial mixture containing 4-(3-ethoxy-4-hydroxyphenyl)butan-2-one and a diol, and cosmetic composition containing same” (L'OREAL, priority 2017, dated 2021) can be followed below.

Structures are written as SMILES. Counter-ions that a name gives are not always drawn.

In assay [1] the test system is Candida albicans ATCC 10231. The assay can be described thus: MIC / microbial growth test, 96-well microplate, optical density at 620 nm, with FIC index. Type of assay: cell-based. The text has this:
(§1) FIC Index=([…]) with: • MICa with B: minimum concentration of product A in the combination A+B which makes it possible to obtain an inhibitory effect • MICb with A: minimum concentration of product B in the combination A+B which makes it possible to obtain an inhibitory effect. • MICa: minimum inhibitory concentration of product A alone. • MICb: minimum inhibitory concentration of product B alone. […] As regards the combinations tested, MICa with b and MICb with a are the respective concentrations of A and of B in the combinations which make it possible to obtain a microbial growth percentage of less than or equal to 25%. When the FIC index value is less than or equal to 1, it is considered that the combination of test compounds has a synergistic effect. The combinations of compounds A and B were tested on the following strains: Aspergillus niger and Candida albicans. […] A 96-well microplate and an incubation temperature of 32.5° C. are used. The incubation time of the microplate is: • from 24 hours to 48 hours aerobically for Aspergillus niger, • from 18 hours to 24 hours aerobically for Candida albicans. A 10% (weight/volume) stock solution was prepared by mixing 1 g of compound in 9 ml of aqueous 1%o agar solution. […] 50 μL of each of the daughter solutions obtained containing compound A or B1 or B2 are added to the microplate wells. 100 μL of Sabouraud liquid nutrient broth seeded with the strain Aspergillus niger and 50 μL of aqueous 1%o agar solution are also added thereto. 50 μL of each of the daughter solutions obtained containing compound A and 50 μL of each of the daughter solutions obtained containing compound B1 or B2 are added to the microplate wells. 100 μL of Sabouraud liquid nutrient broth seeded at double concentration with the strain Aspergillus niger are also added thereto. A positive microbial growth control was also prepared. […] This control corresponds to 100 μL of double concentration sterile Sabouraud liquid nutrient broth+100 μL of double concentration compound A or B1 or B2.

In assay [2] the test system is Aspergillus niger ATCC 6275. The description is as above. Type of assay: cell-based.
Excerpt: as §1, with “B2. […] In the two cases (test and control), the inoculum represents the concentration of the strain Aspergillus niger present in the final volume of the wells (200 μL) and is between 2 and 6×10^5 cfu/ml of Aspergillus niger.” for “B2.”

Where [3] appears, read: Candida albicans, growth <= 25%.
The mark [4] stands for this setting: Aspergillus niger, growth <= 25%.

In the case of `CCOc1cc(CCC(C)=O)ccc1O` [A, 4-(3-ethoxy-4-hydroxyphenyl)butan-2-one], the microbial growth percentage in assay [1] (0.025 A + 0 B1 (weight %)) was 63%; in assay [1] (0.025 A + 0 B2 (weight %)) it was 83%; in assay [1] (0.05 A + 0 B1 (weight %)) it was 47%; in assay [1] (0.05 A + 0 B2 (weight %)), 70%; in assay [1] (0.1 A + 0 B1 (weight %)) it was 22%; in assay [1] (0.1 A + 0 B2 (weight %)), 50%. The microbial growth percentage turned out to be 10% in assay [1] (0.2 A + 0 B2 (weight %)); 228% in assay [2] (0.025 A + 0 B2 (weight %)); 109% in assay [2] (0.05 A + 0 B2 (weight %)); 83% in assay [2] (0.0625 A + 0 B1 (weight %)); 85% in assay [2] (0.0625 A + 0 B3 (weight %)); 73% in assay [2] (0.1 A + 0 B2 (weight %)). For the same molecule, the microbial growth percentage in assay [2] (0.125 A + 0 B1 (weight %)) stood at 49%; in assay [2] (0.125 A + 0 B3 (weight %)) it was 48%; in assay [2] (0.2 A + 0 B2 (weight %)) it was 72%; in assay [2] (0.25 A + 0 B1 (weight %)) it was 5%; in assay [2] (0.25 A + 0 B3 (weight %)), 7%; in assay [2] (0.4 A + 0 B2 (weight %)) it was 6%. Besides, the “% MIC of A alone” value is 0.1% in assay [1] (Candida albicans, series with B1, growth <= 25%); 0.25% in assay [2] (Aspergillus niger, series with B1, growth <= 25%); 0.4% in assay [2] (Aspergillus niger, series with B2, growth <= 25%); 0.25% in assay [2] (Aspergillus niger, series with B3, growth <= 25%).
With `N=C(NCCCCCCNC(=N)NC(=N)Nc1ccc(Cl)cc1)NC(=N)Nc1ccc(Cl)cc1.O=C(O)[C@H](O)[C@@H](O)[C@H](O)[C@H](O)CO.O=C(O)[C@H](O)[C@@H](O)[C@H](O)[C@H](O)CO` [B1, chlorhexidine digluconate, reference compound], the microbial growth percentage came out at 59% in assay [1] (0 A + 0.00025 B1 (weight %)); 32% in assay [1] (0 A + 0.0005 B1 (weight %)); 3% in assay [1] (0 A + 0.001 B1 (weight %)); 98% in assay [2] (0 A + 0.0025 B1 (weight %)); 98% in assay [2] (0 A + 0.005 B1 (weight %)); 7% in assay [2] (0 A + 0.01 B1 (weight %)). In addition, the “% MIC of B1 alone” value in assay [1] (setting [3]) worked out at 0.001%; in assay [2] (setting [4]) it was 0.01%.
In the case of `[H]/N=C(\N/C(=N/[H])NCCCCCCNC(=N)NC(=N)Nc1ccc(Cl)cc1)Nc1ccc(Cl)cc1` [B2, chlorhexidine hydrochloride, reference compound], the microbial growth percentage in assay [1] (0 A + 0.00025 B2 (weight %)) stood at 82%; in assay [1] (0 A + 0.0005 B2 (weight %)), 64%; in assay [1] (0 A + 0.001 B2 (weight %)), 14%; in assay [2] (0 A + 0.025 B2 (weight %)), 194%; in assay [2] (0 A + 0.05 B2 (weight %)), 121%; in assay [2] (0 A + 0.1 B2 (weight %)), 137%. The microbial growth percentage in assay [2] (0 A + 0.2 B2 (weight %)) was 2%. In addition, the “% MIC of B2 alone” value was found to be 0.001% in assay [1] (setting [3]) and 0.02% in assay [2] (setting [4]).
